According to patent publication US8329739B2, “Phenylimidazole compounds” (Otsuka Pharmaceutical Factory, Inc., priority 2009, dated 2012):

What was measured:
[1] = Lipid-improving action in SD rats: blood biochemical examinations (triglyceride, HDL-cholesterol); type: in vivo; settings: Rattus norvegicus, po, 100 mg/kg orally every day for 5 days or 2 weeks, plasma 4 hours after final administration, vs control group, read-out: Rate of increase in HDL-cholesterol levels (%)
Method: (§1) 8-week-old SD rats (Japan Charles River: average body weight of about 350 g) were used. 5% aqueous gum arabic suspension, which was prepared such that the dosage of a compound of the present invention was 100 mg/kg body weight, was orally administered to the experimental group in an amount of 5 ml/kg body weight. 5% aqueous gum arabic suspension (not containing any compounds of the present invention) was orally administered to the control group in an amount of 5 ml/kg body weight. The rats were grouped according to their body weight at 8 weeks of age such that each group had 5 rats. The test compounds were orally administered every day at a fixed time for 5 days or 2 weeks, starting when the rats were 9 weeks old. Body weight was regularly measured during the period of oral administration, and the body weight gain-inhibiting effect was observed. 4 hours after the final administration of the test compound, blood was collected from the vein, plasma was separated from the collected blood, and blood biochemical examinations (triglyceride, HDL-cholesterol) were carried out.
Blood biochemical examinations of rats in the control group and the experimental group were performed. The rates of change (%) were calculated according to the following formulae from the measured values obtained from the blood biochemical examinations. […] Rate of decrease in triglyceride levels (%)=[(mean value of the control group)−(mean value of the experimental group)]/(mean value of the control group)×100 Rate of increase in HDL-cholesterol levels (%)=[(mean value of the experimental group)−(mean value of the control group)]/(mean value of the control group)×100

[2] = Body weight gain-inhibiting effect in normal SD rats; type: in vivo; settings: Rattus norvegicus, po, 100 mg/kg orally every day for 5 days or 2 weeks, vs control group, read-out: Rate of inhibition of body weight gain (%)
Method: as §1
The rate of inhibition of body weight gain (%) was calculated from the measured body weights of rats in the control group and the experimental group, according to the following formula. […] Rate of inhibition of body weight gain (%)=[(mean value of the control group)−(mean value of the experimental group)]/(mean value of the control group)×100

LPL (lipoprotein lipase) = biological target: T1, LPL (lipoprotein lipase) (Mus musculus, UniProt P11152); test: Confirmation test of LPL activation effect in mouse skeletal muscle cells (C2C12 cells); type: cell-based; settings: 8 hours exposure, vs control group
T1 construct: endogenous in cells; host or cells: C2C12 cells, differentiated
T1 sequence (P11152 28-474): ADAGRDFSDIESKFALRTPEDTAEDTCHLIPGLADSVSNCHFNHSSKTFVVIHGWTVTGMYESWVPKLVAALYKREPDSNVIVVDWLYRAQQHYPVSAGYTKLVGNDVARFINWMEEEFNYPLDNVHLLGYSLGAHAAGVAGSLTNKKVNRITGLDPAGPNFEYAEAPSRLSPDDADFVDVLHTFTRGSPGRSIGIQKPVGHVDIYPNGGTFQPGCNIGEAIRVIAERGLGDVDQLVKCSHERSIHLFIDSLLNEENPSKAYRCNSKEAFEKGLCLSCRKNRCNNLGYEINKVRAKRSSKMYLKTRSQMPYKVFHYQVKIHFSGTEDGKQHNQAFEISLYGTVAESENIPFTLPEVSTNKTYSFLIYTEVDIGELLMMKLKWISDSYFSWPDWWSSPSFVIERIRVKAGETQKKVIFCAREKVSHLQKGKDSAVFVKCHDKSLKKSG
Outline: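 Differentiated human skeletal muscle myoblasts or mouse C2C12 cells were exposed to compound at 10 μM or 30 μM in 0.3% DMSO medium for 8 h, then LPL was released with heparin-containing Tris-HCl buffer (10 min, 37° C). Supernatant LPL activity was taken as the fluorescence increase 10–70 min after adding substrate; % increase is calculated versus the DMSO control mean.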

Row | SMILES | melting point [°C] | change in vivo at 100 mg/kg [1] [%] | inhibition in vivo at 100 mg/kg [2] [%] | Rate of increase in LPL activity (LPL (lipoprotein lipase); amount of addition 10 μM) [%] | Rate of increase in LPL activity (LPL (lipoprotein lipase); amount of addition 30 μM) [%]
1 | COc1cc(-c2c[nH]c(-c3ccc(F)cc3)n2)ccc1OCc1ccc(Br)cc1F.Cl [Example 52] | 228 to 233 | 36 | 6 | – | –
2 | COc1cc(-c2c[nH]c(-c3cccs3)n2)ccc1OCc1ccc(Br)cc1F [Example 67] | 177 to 179 | 15 | 7 | 22 | 34
3 | COc1cc(OCc2ccc(Cl)cc2)ccc1-c1c[nH]c(-c2ccsc2)n1.Cl [Example 70] | 238 to 241 | 34 | 14 | 22 | 87
4 | COc1cc(OCc2ccc(C#N)cc2)ccc1-c1c[nH]c(-c2cccc(C(F)(F)F)c2)n1.Cl [Example 74] | 248 to 250 | 64 | 6 | 10 | 55
5 | COc1cc(OCc2ccc(Br)cc2F)ccc1-c1c[nH]c(-c2ccc(C)cc2)n1 [Example 84] | 160 to 162 | 187 | 8 | 53 | 97
6 | COc1cc(OCc2ccc(C#N)cc2)ccc1-c1c[nH]c(-c2ccc(Cl)c(Cl)c2)n1 [Example 111] | 137 to 140 | – | – | 61 | 81
7 | COc1cc(OCc2ccc(Cl)cc2)ccc1-c1c[nH]c(-c2ccc(F)c(F)c2)n1 [Example 112] | 252 to 257 | – | – | 58 | 199
8 | COc1cc(OCc2ccc(Cl)cc2)ccc1-c1c[nH]c(-c2cccc(Cl)c2)n1.Cl [Example 113] | 223 to 226 | – | – | 4 | 123
9 | COc1cc(OCc2ccc(Cl)cc2)ccc1-c1c[nH]c(-c2ccc(C(C)(C)C)cc2)n1 [Example 115] | 154 to 157 | – | – | 62 | 88
10 | COc1cc(OCc2ccc(C#N)cc2)ccc1-c1c[nH]c(-c2ccc(C(C)(C)C)cc2)n1 [Example 116] | 177 to 184 | – | – | 36 | 84
11 | COc1cc(OCc2ccc(Cl)cc2)ccc1-c1c[nH]c(-c2cc(Cl)cc(Cl)c2)n1.Cl [Example 118] | 233 to 241 | – | – | 80 | 102
12 | COc1cc(OCc2ccc(Cl)cc2)ccc1-c1c[nH]c(-c2cccc(C(F)(F)F)c2)n1.Cl [Example 119] | 231 to 236 | – | – | 67 | 174
13 | COc1cc(OCc2ccccc2)ccc1-c1c[nH]c(-c2cc(F)cc(F)c2)n1.Cl [Example 121] | 247 to 249 | – | – | 113 | 270
14 | COc1cc(OCc2ccccc2)ccc1-c1c[nH]c(-c2ccc(Cl)cc2)n1 [Example 123] | 160 to 163 | – | – | 11 | 42
15 | COc1cc(OCc2ccccc2)ccc1-c1c[nH]c(-c2ccc(Cl)c(Cl)c2)n1.Cl [Example 124] | 242 to 245 | – | – | 93 | 113
16 | COc1cc(OCc2ccccc2)ccc1-c1c[nH]c(-c2cccc(C(F)(F)F)c2)n1 [Example 126] | 159 to 162 | – | – | 99 | 297
17 | COc1ccc(-c2nc(-c3ccc(OCc4ccccc4)cc3OC)c[nH]2)cc1.Cl [Example 128] | 154 to 165 | – | – | 49 | 208
18 | COc1cccc(-c2nc(-c3ccc(OCc4ccccc4)cc3OC)c[nH]2)c1.Cl [Example 130] | 236 to 238 | – | – | 9 | 170
19 | COc1cc(OCc2ccc(Cl)cc2F)ccc1-c1c[nH]c(-c2ccc(C(F)(F)F)cc2)n1 [Example 132] | 165 to 166 | – | – | 35 | 213
20 | COc1cc(OCc2ccc(Cl)cc2F)ccc1-c1c[nH]c(-c2ccc(F)cc2)n1.Cl [Example 133] | 259 to 260 | – | – | 63 | 236
21 | COc1cccc(-c2nc(-c3ccc(OCc4ccc(Cl)cc4F)cc3OC)c[nH]2)c1.Cl [Example 134] | 245 to 249 | – | – | 32 | 308
22 | COc1cc(OCc2ccc(Cl)cc2F)ccc1-c1c[nH]c(-c2ccccc2)n1.Cl [Example 139] | 249 to 251 | – | – | 71 | 128
